Experimental data reported in patent US7572913B2, “4-substituted piperidine derivatives” (Bioaxone Therapeutique Inc., priority 2004, dated 2009).

Tests used:
[1] = system: Caco-2 cells
Experimental: After incubation, samples are taken from the apical and basolateral compartment and the concentration of the test compound is determined by LCMS (liquid chromatography/mass spectroscopy).
Stock cultures are sub-cultured every 7 days when cells have reached 80-90% confluency. Studies are conducted with Caco-2 cells, used between passage 21 to 40. Cells are plated on Transwell™ inserts at a density of 1×10^4 cells/well in 24-well culture plates. Cells are incubated at 37° C. under 5% CO2 atmosphere, and media (MEM Earles medium containing 10% FBS, 0.1 mM non-essential amino acids and 1 mM sodium pyruvate) are changed 3 times per week. Cells are used for permeability studies between 20 to 22 days after seeding. On the day of the assay, cell monolayers are washed 3 times. Each wash consists of aspirating liquid from the apical (A) and basolateral (B) sides, and adding 0.5 and 1 mL, respectively, of fresh Dulbecco's phosphate-buffered saline with Mg^2+ and Ca^2+, pH 7.4 (PBS). After the final wash, a volt-ohm-meter is used to determine the trans-epithelial electrical resistance (TEER), a measure of the integrity of the monolayer. Cells are not be used if the TEER values are less than 200 ohms/cm^2. Working solutions of the test compounds are prepared in PBS. […] For each test compound and standard, apical to basolateral (A to B) and basolateral to apical (B to A) transport is measured. The final volume on the basolateral side is 1 mL; the final volume on the apical side is 0.3 mL. The test compound working solution or radiolabeled standard solution is added to the ‘donor’ side. Blank buffer is added to the ‘acceptor’ side. […] The permeability of each compound and control is measured by sampling 200μL of medium from the acceptor compartment at time zero and following 60 minutes of incubation. […] A 3 mL aliquot of liquid scintillant is added to the vials, and disintegrations per minute (dpm) are determined in a liquid scintillation counter. […] The permeability of Lucifer Yellow is measured by sampling 100 μL of medium from the basolateral compartment following 60 minutes of incubation. […]

[2] = system: HUVEC cells; assay: HUVEC capillary tube formation on ECMatrix; assay type: cell-based, human; conditions: for relative amount of tube formation: 15,000 HUVEC cells on ECMatrix, 6-8 h
Source text: HUVEC cells will form capillary tubes when plated on protein substrates composed of proteins found in the extracellular matrix. Typical substrates useful for experiments with HUVEC cells are Matrigel, fibronectin or collagen. Matrigel is composed of several proteins that make up the extracellular matrix. Extracelluar matrix substrates can be plated in tissue culture dishes as 3-dimensional cell culture substrates. Another reagent that can be used as a substrate is ECMatrix™ (Chemicon International, Temecula, Calif.), a reconstituted basement membrane matrix of proteins derived from the Engelbreth Holm-Swarm (EHS) mouse tumor. This substrate gels rapidly at 22-35° C. Thus, ECMatrix™ is thawed overnight on ice or in +4° C. A 96-well plate is pre-chilled, and 100μl of the ECMatrix solution is added to each well. The plate is incubated at 37° C. for at least one hour to allow the matrix solution to solidify. The HUVEC cells are harvested and resuspended in a standard cell growth media supplemented with endothelial cell growth supplements. The presence of serum (0.5-10%) is optional. EGM (endothelial cell growth media) can be used. The HUVEC cells are plated at a density of 5×10^3 to 1×10^4 cells per well onto the surface of the polymerized ECMatrix™, and then incubated overnight in a tissue-culture incubator. Cellular network structures are fully developed by 12 to 18 h, with the first signs apparent after 5-6 h. After 24 h, the cells begin to undergo apoptosis. To study the effect of anti-angiogenic factors, they can be added at the time of cell plating. Optional tissue culture vary depending on the cell type, age, and media growth conditions. The tubes are inspected under an inverted light microscope at 40×-200× magnification. Since there is a lack of contrast of the cellular networks, the cultures can be stained with any of the common cell staining procedures such as Diff-Quick or Wright-Giemsa or crystal-violet. The total capillary tube length measurement method is used to quantify the results. The total length of all the capillary tubes in several (3-10) view-fields is measured by Northern Eclipse software.
Photos are representative of 5 separate experiments.
Tranilast is used as a positive control. For this experiment, 15,000 HUVEC cells were plated on ECMatrix™ and incubated for 6-8 h alone before quantification. Results are presented as mean± SEM for one experiment analyzed in duplicate. […] It is used as a positive control.

[3] = molecular target: T1, ROCKII (Rattus norvegicus, UniProt Q62868); assay: ROCKII inhibition at a single concentration of 10 μM (selectivity histogram, Table 3); assay type: biochemical
T1 construct: purchased Upstate Ltd. (United Kingdom)
T1 sequence (Q62868 whole entry): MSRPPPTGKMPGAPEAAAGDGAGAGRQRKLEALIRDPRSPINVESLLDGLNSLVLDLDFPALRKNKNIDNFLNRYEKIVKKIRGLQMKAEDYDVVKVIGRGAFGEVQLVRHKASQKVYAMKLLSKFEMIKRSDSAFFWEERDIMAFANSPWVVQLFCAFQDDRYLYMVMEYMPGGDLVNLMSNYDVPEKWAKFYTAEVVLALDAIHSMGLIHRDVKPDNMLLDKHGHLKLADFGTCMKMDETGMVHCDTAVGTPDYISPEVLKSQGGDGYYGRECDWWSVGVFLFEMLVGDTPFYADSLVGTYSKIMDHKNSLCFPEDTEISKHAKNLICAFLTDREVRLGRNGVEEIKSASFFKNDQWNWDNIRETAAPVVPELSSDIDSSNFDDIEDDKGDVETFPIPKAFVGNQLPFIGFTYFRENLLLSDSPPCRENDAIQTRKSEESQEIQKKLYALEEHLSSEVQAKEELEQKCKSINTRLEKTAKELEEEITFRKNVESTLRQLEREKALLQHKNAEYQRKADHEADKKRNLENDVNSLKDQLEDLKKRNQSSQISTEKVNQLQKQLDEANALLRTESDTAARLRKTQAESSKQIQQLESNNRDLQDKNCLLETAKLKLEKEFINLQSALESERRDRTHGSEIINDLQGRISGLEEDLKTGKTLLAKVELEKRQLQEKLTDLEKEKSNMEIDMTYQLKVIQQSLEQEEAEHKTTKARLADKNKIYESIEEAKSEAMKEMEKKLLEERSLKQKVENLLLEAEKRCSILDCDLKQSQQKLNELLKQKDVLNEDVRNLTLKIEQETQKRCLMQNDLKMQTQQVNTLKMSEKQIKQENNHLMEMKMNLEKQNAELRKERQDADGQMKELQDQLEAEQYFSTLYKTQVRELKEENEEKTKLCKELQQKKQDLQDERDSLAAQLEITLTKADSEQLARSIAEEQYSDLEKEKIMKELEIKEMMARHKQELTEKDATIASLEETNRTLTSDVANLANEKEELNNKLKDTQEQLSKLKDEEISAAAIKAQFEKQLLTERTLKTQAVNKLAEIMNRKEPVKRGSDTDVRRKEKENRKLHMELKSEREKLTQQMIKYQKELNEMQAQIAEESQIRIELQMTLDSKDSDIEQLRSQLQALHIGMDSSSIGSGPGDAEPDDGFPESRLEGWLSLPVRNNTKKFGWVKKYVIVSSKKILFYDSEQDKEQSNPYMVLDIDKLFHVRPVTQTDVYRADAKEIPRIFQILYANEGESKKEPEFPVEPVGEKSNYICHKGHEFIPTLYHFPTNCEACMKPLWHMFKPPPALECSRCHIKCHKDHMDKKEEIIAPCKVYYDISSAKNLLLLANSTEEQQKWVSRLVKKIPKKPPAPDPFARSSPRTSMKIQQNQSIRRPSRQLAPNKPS
Experimental: Compounds of this invention can be evaluated for kinase inhibition activity as solutions in 100% DMSO at a concentration of 10 μM added to GSK3β(h) and to ROCK-II(r) with ATP present at a concentration of 100 μM. Samples of compounds of this invention can be tested at 10 μM.
The data can be presented as relative ROCK kinase inhibition at a reference compound concentration of 3.5 uM and at 35 μM, wherein 0 signifies complete inhibition under the ATP concentration tested (100 μM). ROCK kinase activity is the opposite of ROCK kinase inhibition, and is compared with the GSKB kinase activity.
Experiments were done in duplicate. ATP was present at 100 μM in the assay.
The values were expressed in a percentage of inhibition of each kinase. Experiments were done in duplicate. ATP was present at 100 μM in the assay.
(§1) Percent net neurite outgrowth at 35 micromolar concentrations are presented in Table 3 together with percent Rock inhibition at 10 micromolar for three compounds designated BA-1043, BA-1049, and BA-1050. […] It should be noted that percent Rock activity is equal to 100% minus percent Rock inhibition.

[4] = system: Caki cells (human renal cancer line) subcutaneous tumors; conditions: 50 μL PBS with 40 μM E-23a injected into tumor every day for two weeks; 6 mice; vehicle control 304%
Experimental: An in vivo model to test anti-proliferative activity of test compounds is a subcutaneous (s.c.) tumor model. In this model, human cancer cells are seeded into mice by a subcutaneous injection. Typically immune-compromised mouse cell lines are used, such as CD-1 nude mice, to prevent a graft rejection response. The test compound is administered as a formulation in a pharmaceutically acceptable vehicle suitable for injection use, such as isotonic phosphate buffered saline (PBS), by injection into the tumor. Different dosing schedules can be tested and compared with mice receiving injection of vehicle control. Before implantation into an animal, tumor cells are expanded in their specific tissue culture medium. Medium is changed 2 to 3 times per week. […] The tumor growth is monitored twice a week. Tumor volume is determined with a digital caliper and calculated using the formula: width^2×length×0.5. The length is taken at the basis of the tumors between the two most distant points of the tumor mass, whereas the width is measured right-angled to the length. […] Tumor volume and animal body weight are recorded twice a week.
Caki cells, which are a human renal cancer line were grown in tissue culture. […] Tumors were evaluated after 2 weeks of treatment after the final injection.

[5] = system: NG108 cells; assay: Bioassay of neurite outgrowth in NG108 cells on plastic; assay type: cell-based; conditions: compound at 35 micromolar
Source text: as §1

`CC(N)C1CCN(S(=O)(=O)c2cccc3cnccc23)CC1.Cl.Cl` (racemic) [E-23a, (R,S)-N-(5″-isoquinolinesulfonyl)-4-[ethan-1′-amino]piperidine dihydrochloride] was tested. Which “B − A/A − B Papp ratio” value ([1]; Caco-2 monolayer) did it give?
The value was 1.31.

And the “permeability (in words)” value ([1]; Caco-2 permeability assay)?
Its value is “good permeability”.

And the “relative amount of tube formation” value ([2]; 10 μM)?
The value was “approximately 40 % relative to control”.

What about the “relative amount of tube formation” value ([2]; 50 μM) of the same molecule?
The value was “approximately 35 % relative to control”.

What about the “HUVEC tube formation relative to control (in words)” value ([2]; E-23a 10 and 50 μM) of the same molecule?
Its value is “substantially reduced”.

And the “percentage of inhibition of ROCKII” value ([3]; FIG. 5, compound at 10 μM, ATP 100 μM, duplicate)?
Its value is 83%.

What about the “Percent Rock inhibition at 10 micromolar” value ([3]; Table 3, compound at 10 micromolar) of the same molecule?
Its value is 97%.

What about the “mean tumor size increase, % of initial tumor volume” value [4] of the same molecule?
The value was “approximately 156 % of initial tumor volume”.

And the “Percent Net Neurite Outgrowth at 35 micromolar” value [5]?
Its value is 39.0%.
